From US20080287445A1, “Prokineticin 2 receptor antagonists” (priority 2005, published 2008) come the findings set out here.

This assay concerns the target T1, GPR73 (prokineticin 1 receptor) (Homo sapiens, UniProt Q8TCW9).
T1 construct: expressed in transfected cells; host or cells: HEK 293
Briefly: PK1 functional assay: Ca2+ mobilization screening for PK1 antagonists on the FLIPR. The class given is cell-based. Particulars: HEK 293 GPR73 cells, multiple values = multiple testing; for inhibition at 10 µM: HEK293, 10 μM compound, read-out: Ca^2+ Mobilization % Inh @ 10 μM; for IC50: PK1 ligand preparation at its EC50, read-out: Ca^2+ Mobilization IC50; for Ca^2+ Mobilization % Inh @ 10 μM: 10 μM compound. The procedure, abridged: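 HEK293 cells expressing human GPR73 were loaded with Calcium Plus dye, then on FLIPR given compound for 4 min 15 s before PK1 ligand at its predetermined EC50. Baseline-subtracted fluorescence over 1 min 45 s gave percent inhibition versus maximal signal; IC50 fitted.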

Where “and” joins values, the source holds several entries; their conditions need not be identical. Equal entries are not always repeated.

T1 sequence (Q8TCW9 whole entry, species assumed): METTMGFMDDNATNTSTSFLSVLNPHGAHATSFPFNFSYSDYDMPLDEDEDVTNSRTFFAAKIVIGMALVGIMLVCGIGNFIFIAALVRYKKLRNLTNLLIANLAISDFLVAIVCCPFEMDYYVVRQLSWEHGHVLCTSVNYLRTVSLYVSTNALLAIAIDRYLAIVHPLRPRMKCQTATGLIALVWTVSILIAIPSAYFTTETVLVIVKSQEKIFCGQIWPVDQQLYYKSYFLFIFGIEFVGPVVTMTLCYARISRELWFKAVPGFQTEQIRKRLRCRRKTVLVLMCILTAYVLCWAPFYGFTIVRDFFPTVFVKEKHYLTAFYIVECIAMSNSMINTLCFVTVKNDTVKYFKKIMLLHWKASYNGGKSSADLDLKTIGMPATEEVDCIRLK

For the compound `COc1ccc(Cn2c(NCc3c(N)nc4c(c3C)CCC4)nc(=O)n(Cc3ccc(OC)cc3)c2=O)cc1` [Cpd 264], the inhibition at 10 µM amounted to 95% and the half-inhibitory concentration (IC50) stood at 74 nM.
For the compound `COc1ccc(Cn2c(=O)nc(NCc3cnc(C)cc3C)n(Cc3ccc(OC(F)F)cc3)c2=O)cc1` [Cpd 96], the IC50 came to 273 nM.
Turning to `COc1ccc(Cn2c(NCc3cnc(C)cc3C)nc(=O)n(Cc3ccc4[nH]ccc4c3)c2=O)cc1` [Cpd 229], the inhibition at 10 µM was 41% and the IC50 is over 10000 nM.
On to `COc1ccc(Cn2c(NCc3ncccc3C)nc(=O)n(Cc3ccc(OC)cc3)c2=O)cc1` [Cpd 65], for which the concentration for half-maximal inhibition (IC50) was over 10000 nM.
As for `Cc1cc(C)c(CNc2nc(=O)n(Cc3ccc4c(c3)CCO4)c(=O)n2Cc2ccc(OC(F)F)cc2)c(N)n1` [Cpd 176], the “Ca^2+ Mobilization % Inh @ 10 μM” value is recorded as 98%; the inhibition at 10 µM turned out to be 96%; the IC50 is 23 nM and 48 nM and 130 nM.
As for `COc1ccc(Cn2c(NCc3cccnc3N)nc(=O)n(Cc3ccc4occc4c3)c2=O)cc1` [Cpd 134], the inhibition at 10 µM was 86% and the IC50 came to 225 nM.
The matching figures for `Cc1cc(C)[n+]([O-])c(N)c1CNc1nc(=O)n(Cc2ccc3c(c2)CCO3)c(=O)n1Cc1ccc2c(c1)CCO2` [Cpd 226, 6-[(2-Amino-4,6-dimethyl-1-oxy-pyridin-3-ylmethyl)-amino]-1,3-bis-(2,3-dihydro-benzofuran-5-ylmethyl)-1H-[1,3,5]triazine-2,4-dione]: 85% and 922 nM.
Taken in the same sequence, the figures for `COc1ccc(Cn2c(NCc3c(N)nc4c(c3-c3ccccc3)CCC4)nc(=O)n(Cc3ccc(OC)cc3)c2=O)cc1` [Cpd 246] were 48% and 8320 nM.
In the case of `COc1ccc(Cn2c(NCc3cnc(C)cn3)nc(=O)n(Cc3ccc(OC)cc3)c2=O)cc1` [Cpd 247], the “Ca^2+ Mobilization % Inh @ 10 μM” value amounted to 97%; the inhibition at 10 µM is 100%; the half-inhibitory concentration (IC50) is 27 nM and 30 nM.
With `COc1ccc(Cn2c(CCc3cccnc3N)cc(=O)n(Cc3ccc(OC)cc3)c2=O)cc1` [Cpd 199, 6-[2-(2-Amino-pyridin-3-yl)-ethyl]-1,3-bis-(4-methoxy-benzyl)-1H-pyrimidine-2,4-dione], the “Ca^2+ Mobilization % Inh @ 10 μM” value is reported as 95%; the inhibition at 10 µM was determined as 92%; the IC50 is 169 nM and 691 nM.
`COc1ccc(Cn2c(NC(C)c3ccccn3)nc(=O)n(Cc3ccc(OC)cc3)c2=O)cc1` (stereo not drawn) [Cpd 234]: the inhibition at 10 µM is 66% and the IC50 was 2590 nM.
Taken in the same sequence, the figures for `Cc1cc(C)c(CNc2nc(=O)n(Cc3ccc4sccc4c3)c(=O)n2Cc2ccc(OC(F)F)cc2)c(N)n1` [Cpd 174] were 87% and 290 nM.
For the compound `Cc1cc(C)[n+]([O-])c(N)c1CNc1nc(=O)n(Cc2ccc3c(c2)CCO3)c(=O)n1Cc1ccc(OC(F)F)cc1` [Cpd 233, 6-[(2-Amino-4,6-dimethyl-1-oxy-pyridin-3-ylmethyl)-amino]-1-(4-difluoromethoxy-benzyl)-3-(2,3-dihydro-benzofuran-5-ylmethyl)-1H-[1,3,5]triazine-2,4-dione], the “Ca^2+ Mobilization % Inh @ 10 μM” value is 97%; the inhibition at 10 µM was 96%; the IC50 is 69 nM and 130 nM.
As to `Cc1cc(C)c(CNc2nc(=O)n(Cc3ccc4c(c3)OCO4)c(=O)n2Cc2ccc(OC(F)F)cc2)c(N)n1` [Cpd 219], the “Ca^2+ Mobilization % Inh @ 10 μM” value is 97%; the inhibition at 10 µM was found to be 94%; the half-maximal inhibitory concentration (IC50) is 136 nM and 158 nM.
With `COC(=O)c1ccc(Cn2c(NCc3cccnc3N)nc(=O)n(Cc3ccc(OC)cc3)c2=O)cc1` [Cpd 36], the inhibition at 10 µM was determined as 84% and the half-maximal inhibitory concentration (IC50) was found to be 270 nM.
Taken in the same sequence, the figures for `Cn1nnc2cc(Cn3c(=O)nc(NCc4cccnc4N)n(Cc4ccc5c(c4)CCO5)c3=O)ccc21` [Cpd 244] were 94% and 121 nM.
As for `COc1ccc(Cn2c(=O)nc(NCc3cccnc3N)n(Cc3ccc(O)cc3)c2=O)cc1` [Cpd 33, 6-[(2-Amino-pyridin-3-ylmethyl)-amino]-1-(4-hydroxy-benzyl)-3-(4-methoxy-benzyl)-1H-[1,3,5]triazine-2,4-dione], the “Ca^2+ Mobilization % Inh @ 10 μM” value is 102%; the inhibition at 10 µM was found to be 95%; the concentration for half-maximal inhibition (IC50) was 49 nM and 77 nM.
With `COc1ccc(Cn2c(NCc3cnc(C)cc3C)nc(=O)n(Cc3ccc(OC(F)F)cc3)c2=O)cc1` [Cpd 83], the inhibition at 10 µM was found to be 82% and the half-inhibitory concentration (IC50) was determined as 668 nM.
The matching figures for `Cc1cc(C)c(CNc2nc(=O)n(Cc3ccccc3C#N)c(=O)n2Cc2ccc(OC(F)F)cc2)cn1` [Cpd 180]: 37% and over 10000 nM.
Take `COc1ccc(Cn2c(=O)nc(NCc3c(C)cc(C)nc3N)n(Cc3ccc4c(c3)CCO4)c2=O)cc1` [Cpd 157]: the “Ca^2+ Mobilization % Inh @ 10 μM” value is given as 96%; the inhibition at 10 µM is 92%; the IC50 is 4 nM and 11 nM.
For `COc1ccc(Cn2c(CCc3ccccn3)cc(=O)n(Cc3ccc(OC)cc3)c2=O)cc1` [Cpd 187], the inhibition at 10 µM came out at 41% and the half-maximal inhibitory concentration (IC50) is over 10000 nM.
On to `COc1ccc(Cn2c(=O)nc(NCc3cccnc3N)n(Cc3ccc4c(c3)CCO4)c2=O)cc1` [Cpd 125], for which the “Ca^2+ Mobilization % Inh @ 10 μM” value turned out to be 99%; the inhibition at 10 µM was 97%; the 50% inhibitory concentration (IC50) was 54 nM and 14 nM.
`COc1ccc(Cn2c(NCc3cccnc3N)nc(=O)n(Cc3ccc4sccc4c3)c2=O)cc1` [Cpd 145]: the inhibition at 10 µM stood at 90% and the IC50 is 317 nM.
`CCCNc1ncccc1CNc1nc(=O)n(Cc2ccc(OC)cc2)c(=O)n1Cc1ccc(OC)cc1` [Cpd 34]: the inhibition at 10 µM was determined as 98% and the concentration for half-maximal inhibition (IC50) worked out at 81 nM.
Taken in the same sequence, the figures for `C=CCC(c1ccc(OC)cc1)n1c(=O)nc(NCc2cnc(C)cc2C)n(Cc2ccc(OC)cc2)c1=O` (stereo not drawn) [Cpd 109] were 89% and 681 nM.
The matching figures for `Cc1cc(C)c(CNc2nc(=O)n(Cc3ccc4[nH]ccc4c3)c(=O)n2Cc2ccc(OC(F)F)cc2)cn1` [Cpd 227]: 44% and over 10000 nM.
Take `COc1ccc(Cn2c(=O)nc(NCc3cnc(C)cc3C)n(Cc3ccc(OC)c([N+](=O)[O-])c3)c2=O)cc1` [Cpd 136]: the “Ca^2+ Mobilization % Inh @ 10 μM” value was 102%; the inhibition at 10 µM is 92%; the IC50 was 15 nM and 34 nM.
Consider `COc1ccc(Cn2c(=O)nc(NCc3cnc(C)cc3C)n(Cc3ccc(S(C)(=O)=O)cc3)c2=O)cc1` [Cpd 132], for which the inhibition at 10 µM was found to be 79% and the IC50 was found to be 247 nM.
With `COc1ccc(Cn2c(NCc3cccnc3NCCN(C)C)nc(=O)n(Cc3ccc(OC)cc3)c2=O)cc1` [Cpd 51], the inhibition at 10 µM is 93% and the concentration for half-maximal inhibition (IC50) worked out at 207 nM.
Taken in the same sequence, the figures for `COc1ccc(Cn2c(=O)nc(NCc3cccnc3N)n(Cc3ccncc3)c2=O)cc1` [Cpd 76] were 67% and 1460 nM.
In the case of `COCCNc1ncccc1CNc1nc(=O)n(CCc2ccccc2)c(=O)n1Cc1ccc(OC)cc1` [Cpd 71], the inhibition at 10 µM was found to be 38% and the half-inhibitory concentration (IC50) is over 10000 nM.
For the compound `CCCNc1cccc(CNc2nc(=O)n(Cc3ccc(OC)cc3)c(=O)n2Cc2ccc(OC)cc2)n1` [Cpd 147, 1,3-Bis-(4-methoxy-benzyl)-6-[(6-propylamino-pyridin-2-ylmethyl)-amino]-1H-[1,3,5]triazine-2,4-dione], the inhibition at 10 µM is 99% and the half-maximal inhibitory concentration (IC50) came out at 110 nM.
The matching figures for `COc1ccc(Cn2c(NCc3ccc[n+]([O-])c3)nc(=O)n(Cc3ccc(OC)cc3)c2=O)cc1` [Cpd 53]: 45% and over 10000 nM.
Taken in the same sequence, the figures for `COc1ccc(Cn2c(=O)nc(NCc3cnc(C)cc3C)n(Cc3ccc(F)cc3)c2=O)cc1` [Cpd 116] were 95% and 391 nM.
Taken in the same sequence, the figures for `Cc1cc(C)c(CNc2nc(=O)n(CCOc3ccccc3)c(=O)n2Cc2ccc(OC(F)F)cc2)cn1` [Cpd 166] were 73% and 1700 nM.
Regarding `COc1ccc(Cn2c(NCCc3ccccn3)nc(=O)n(Cc3ccc(Cl)c(Cl)c3)c2=O)cc1` [Cpd 1], the inhibition at 10 µM stood at 37% and the IC50 is over 10000 nM.
Take `Cc1cc(C)c(CNc2nc(=O)n(Cc3ccc4occc4c3)c(=O)n2Cc2ccc3c(c2)CCO3)c(N)n1` [Cpd 186]: the “Ca^2+ Mobilization % Inh @ 10 μM” value turned out to be 100%; the inhibition at 10 µM turned out to be 99%; the IC50 was 74 nM and 97 nM.
For the compound `Cc1cc(C)c(CNc2nc(=O)n(Cc3ccc(C(F)(F)F)cc3)c(=O)n2Cc2ccc(OC(F)F)cc2)cn1` [Cpd 162], the inhibition at 10 µM was 31% and the half-maximal inhibitory concentration (IC50) is over 10000 nM.
Consider `COc1ccc(Cn2c(=O)nc(NCc3cccnc3N)n(Cc3cc4ccccc4o3)c2=O)cc1` [Cpd 77], for which the inhibition at 10 µM came out at 91% and the IC50 came to 449 nM.
Taken in the same sequence, the figures for `COc1ccc(Cn2c(=O)nc(NCc3cccnc3N)n(Cc3ccc(SC)cc3)c2=O)cc1` [Cpd 75] were 99% and 131 nM.
Taken in the same sequence, the figures for `COc1ccc(Cn2c(NCc3cnc(C)cc3C)nc(=O)n(Cc3ccc(OC)c(F)c3)c2=O)cc1` [Cpd 218] were 94% and 104 nM.
As for `COc1ccc(Cn2c(NCc3cccnc3N)nc(=O)n(Cc3ccccc3)c2=O)cc1` [Cpd 43], the inhibition at 10 µM is 78% and the IC50 was 801 nM.
As for `CCCc1cc(CCC)c(CNc2nc(=O)n(Cc3ccc(OC)cc3)c(=O)n2Cc2ccc(OC)cc2)c(N)n1` [Cpd 265], the inhibition at 10 µM worked out at 95% and the concentration for half-maximal inhibition (IC50) amounted to 441 nM.
The matching figures for `COc1ccc(Cn2c(=O)nc(NCc3cnc(C)cc3C)n(Cc3ccc(OC)cc3F)c2=O)cc1` [Cpd 206]: 102% and 46 nM.

For orientation: IC50 means the midpoint of a concentration-inhibition curve.
